Publication PMC5557808 (Nature Communications, 2017)
Values belong to the molecule of their own block, whether it stands above or below them. Where a SMILES comes first, the peptide text is derived from it. The star is where a group is joined. X1 = CC[N+](CC)(CC(=O)Nc1c(C)cccc1C)Cc1cccc(C(=O)*)c1

Columns and labels:
[1] = biological target: T1, Leucine aminopeptidase (AP) (Sus scrofa, UniProt P15145); test: Aminopeptidase (AP) incubation; format: biochemical, porcine
T1 construct: Leucine aminopeptidase (AP; Mw = 280 kDa) from porcine kidney; purchased Sigma-Aldrich Chemie, Schnelldorf, Germany; host or cells: porcine kidney (tissue-derived)
T1 sequence (P15145 1-963): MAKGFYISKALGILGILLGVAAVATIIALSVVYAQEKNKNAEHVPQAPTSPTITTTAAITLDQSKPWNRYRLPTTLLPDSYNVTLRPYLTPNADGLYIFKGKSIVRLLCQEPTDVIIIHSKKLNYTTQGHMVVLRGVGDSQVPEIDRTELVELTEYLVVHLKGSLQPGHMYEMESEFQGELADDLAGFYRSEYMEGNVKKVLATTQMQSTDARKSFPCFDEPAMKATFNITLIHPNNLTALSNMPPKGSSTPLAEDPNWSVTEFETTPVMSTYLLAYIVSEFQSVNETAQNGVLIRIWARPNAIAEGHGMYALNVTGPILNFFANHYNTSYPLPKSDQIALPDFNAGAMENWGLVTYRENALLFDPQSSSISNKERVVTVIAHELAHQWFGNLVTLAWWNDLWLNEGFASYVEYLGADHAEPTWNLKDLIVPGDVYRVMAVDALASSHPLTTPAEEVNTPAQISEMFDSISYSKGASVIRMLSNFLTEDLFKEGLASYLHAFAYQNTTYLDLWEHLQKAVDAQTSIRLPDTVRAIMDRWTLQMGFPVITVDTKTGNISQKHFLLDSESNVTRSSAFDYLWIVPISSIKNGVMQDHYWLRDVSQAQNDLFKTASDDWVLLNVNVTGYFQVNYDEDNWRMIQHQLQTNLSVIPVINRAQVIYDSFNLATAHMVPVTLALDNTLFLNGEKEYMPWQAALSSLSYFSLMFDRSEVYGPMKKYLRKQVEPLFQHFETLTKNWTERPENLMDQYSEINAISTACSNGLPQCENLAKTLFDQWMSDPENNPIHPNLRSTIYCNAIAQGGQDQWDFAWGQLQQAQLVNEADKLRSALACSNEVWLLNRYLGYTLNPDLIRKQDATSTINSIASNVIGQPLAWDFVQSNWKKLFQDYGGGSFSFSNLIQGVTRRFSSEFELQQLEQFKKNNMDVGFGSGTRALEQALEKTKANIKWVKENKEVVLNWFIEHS
Procedure: Leucine aminopeptidase (AP; Mw = 280 kDa) from porcine kidney dissolved in AP buffer (50 mM Tris-HCl, 1 mM CaCl2, and 150 mM NaCl at pH 7.0) was used. L-leucine-p-nitroanilide (0.125 mg/mL) was used as control substrate. For AP digestion, 1 mg of purified lyophilized peptide was diluted in 2 mL AP buffer resulting in a final concentration of 0.5 mg/mL substrate. To evaluate the impact of AP concentration on peptide cleavage, AP was added at concentrations of 0 (negative control), 0.87, 8.7, 39, and 78 µg/mL and the samples were incubated at 37 °C for 1 h. For analysis of the AP incubation time, an AP concentration of 0.87 µg/mL was used and analyzed after 10, 20 min and 1, 2, 3, and 6 h. To stop the enzyme activity, samples were kept at 95 °C for 15 min. Afterwards, HPLC analyses were performed (as described in the Supplementary Information) to analyze the relative decrease of the main peak as compared to the negative control. Further details are given in the Supplementary Methods.
MMP -9) in a concentration of 0.4 ng/µL (50 µL) were mixed with MMP -8 buffer (37 µL), detection enz yme (5 µL) and substrate (8µL; all fro m Q uic kZ yme® ). The acti vi t y was meas ur ed for 12 hours in inter vals of 10 minutes. […]
Aminopeptidase (AP) incubation
Leucine A minopeptidase (AP; M w = 280 kD a) from porcine kidney dissolved in AP buffer (50 mM Tris-HCl, 1 mM CaCl2 and 150 mM NaCl at pH 7.0) was used. L-leu cin e-p-nitroan ilide (0.125mg/ mL) was used as control substr at e. […] Fo r anal ysis of the impact of AP incubation time, the identical conditions were used (AP concentration of 0.87 µg / mL (and analyzed after 10, 20 minutes and 1, 2, 3 and 6 hours ). To stop the enzymatic activit y, sa mp les wer e kept at 95 °C for 15 minutes. A fterwards, H PLC analys es were p erformed (as descr ibed) to an al yze th e relative d ecr eas e of the ma i n pea k as co mp ared to the negative control (see […]
V(B)/(V(A)+V(B)) = 5 % to 90 % over 10 min, V(B)/(V(A)+V(B)) = 90 % for 5 min, V(B)/(V(A)+V(B)) = 90 % to 5 % over 3 min. […] UV detection was measured at 254 nm. […]

MMP-8 [2] = test: MMP-8 in MMP-8 buffer; settings: human, 37 °C, up to 22 h
[3] = tested on: MMP-8, then leucine aminopeptidase (AP); test: MMP-8 for 22 h, followed by exposure to AP in AP buffer; settings: porcine kidney (AP), 37 °C, up to 22 h MMP + 30 minutes AP
MMP-8 [4] = test: MMP-8 buffer (200 mM NaCl, 50 mM Tris-HCl, 5 mM CaCl2, 1 µM ZnCl2, 0.05% Brij 35 at pH 6.8–7.0); settings: human, 37 °C, up to 6 hours
MMP-8 [5] = test: MMP-8; settings: human, up to 12 h
MMP-8 [6] = biological target: T2, MMP-8 (Homo sapiens, UniProt P22894); test: MMP-8 cleavage of soluble PCL conjugates (HPLC decrease of main peak); format: biochemical; settings: up to 12 h; control PCLs; MMP-8 buffer pH 6.8-7.0, 37 °C
T2 construct: purchased EMD Millipore Corporation (Billerica, MA)
T2 sequence (P22894 101-467): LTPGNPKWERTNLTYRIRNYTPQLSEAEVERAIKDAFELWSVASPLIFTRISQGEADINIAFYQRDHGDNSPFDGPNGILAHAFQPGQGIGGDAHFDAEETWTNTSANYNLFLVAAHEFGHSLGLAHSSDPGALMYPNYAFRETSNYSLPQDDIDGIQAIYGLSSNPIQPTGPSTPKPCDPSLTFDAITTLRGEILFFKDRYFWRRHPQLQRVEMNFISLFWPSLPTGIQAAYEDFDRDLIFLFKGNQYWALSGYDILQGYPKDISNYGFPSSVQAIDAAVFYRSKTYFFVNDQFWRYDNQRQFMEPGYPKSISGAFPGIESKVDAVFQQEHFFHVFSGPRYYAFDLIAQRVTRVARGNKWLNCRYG
Procedure: Pro-MMPs (e.g., MMP-8, MMP-1, or MMP-9; used at 0.1 mg/mL and >100.0 mU/mg based on the manufacturer’s information) were activated with p-aminophenylmercuric acetate (APMA) (8). For that, a 10 mM stock solution of APMA was freshly prepared in 0.1 M NaOH and a 10:1 (v/v) ratio of the respective proenzyme and the APMA solution (MMP:APMA) was incubated for 3 h at 37 °C. The activity was confirmed using the MMP-8 detection kit (QuickZyme Biosciences, Leiden, the Netherlands). A stock solution (90 µg/mL) of the activated MMP was prepared (used for cleavage studies on the PCL or the fully assembled microparticle-PCL-tastant setup (sensor), in MMP-8 buffer (200 mM NaCl, 50 mM Tris-HCl, 5 mM CaCl2, 1 µM ZnCl2, 0.05% Brij 35 at pH 6.8–7.0). All MMP experiments are described in detail in the Supplementary Methods. […]
in water ( v/v)) and eluent B (0.1 % TFA in 2:3 water-acetonitrile (v/v)) and a gradient from 33 to 80% elu ent B within 30 minutes. UV absorption was r ead at λ = 280 nm or 220 nm. After freezing the samples at -80 °C, fr eeze- drying was performed on a Christ Alpha 1 -4 de vi ce (Martin Christ Gefriertrocknungs anlagen, Osterode am Harz, G e r ma n y) at a desublimers ’ te mperature of - 60 ° C, pressure of 1.030 mbar and processing temperature of 19 °C.
Pro-MMPs (e. g. MMP -8, MMP -1 or MMP-9; adapted to 0.1 mg/mL and > 100.0 mU/mg based on manufacturer information and when appropriate) were activated with APMA 8. For that, a 10 mM stock solution of APMA in 0.1 M NaOH was freshly prepared and a 10:1 (v/v) ratio of the r especti ve proenzyme and APMA solution (MMP:APMA) was incubated for 3 h at 37 °C. The activity was conf ir med using the MMP-8 detection kit (Q uic kZ ym e® Biosciences, Leiden, Netherlands). A stock solution (90 µg/mL) of the activated MMP was prepared (used for cleavage studies on the pr ot eas e-cleavable linker (PCL; e.g. Figure 2) or the fully assemb led microparticle -PCL- t ast ant setup (sensor; e.g. Figure 3) , in MMP -8 buffer (200 mM NaCl, 50 mM Tris-H Cl, 5 mM C aC l2, 1 µM ZnCl2, 0.05 % Brij35 at pH 6.8- 7.0). A ll MMP -8 exp eriments wer e performed as follo ws. 25 µg of the sensor ( see chap ter : Peptide-coupling to beads (Sensor)) in 100 µL MMP-buffer or 1 mg of FP LC -purified and lyophilized PCL as described dissolved 2 mL M MP -buffer resulting in a final concentration of 0.5 mg/ mL substrate was used. […]
Figure 2A , 3, 4B ). […]
(sensor) in co mpar ison to negative controls (the negative controls for the PCL an d sensor exper i men ts were b y incubation without MMP under otherwise identical conditions). The relative d ecreas e of the PCL’s ma in peak was char act er ized by HPLC (PCL) or of the sensor’s fluorescence b y FACS (sensor) in comparison to control. […]

cleavage of the peptide denatonium fragment by aminopeptidase ([1]; 870 ng/mL AP, within 250 min, 0.5 mg/mL substrate, AP buffer pH 7.0, 37 °C, HPLC, n = 5): 80%
Molecule: CC[C@H](C)[C@H](N)C(=O)N[C@@H](C)C(=O)NCC(=O)N[C@@H](CCC(N)=O)C(=O)N[C@@H](CCCCNC(=O)c1cccc(C[N+](CC)(CC)CC(=O)Nc2c(C)cccc2C)c1)C(N)=O [ID #5a] (H-IAGQK(X1)-NH2)

cleaved bond (MMP-8 [2]): G-I | fragment found [3]: denatonium coupled lysin | cleaved bond (MMP-8 [4]): G-I
Molecule: A( N3)-GPQGIA GQ-K-De

effect of additional AP incubation after complete MMP-8 cleavage ([1]; AP 3.1 nM (0.87 µg/mL), 30 min, 37 °C, after 22 h with 1800 ng/mL MMP-8, LC-MS): emerging peaks
Molecule: A( N3)-GPQGIA GQ-K-De [ID #5, second-generation PCL denatonium conjugate]

cleaved bond (MMP-8 [4]): G-I
Molecule: Cf-GP QGIA GQ-A( N3)-Q

not cleaved (MMP-8 [5]): not cleaved by MMP-8 up to 12 h
Molecule: Cf-GPLGI AGQ-A( N3)-Q

cleavage by MMP-8 (MMP-8 [6]): not cleaved
Molecule: Cf-GPLGI AGQ-A( N3)-Q [ID #3, control PCL, exchange Q3L]

not cleaved (MMP-8 [5]): not cleaved by MMP-8 up to 12 h
Molecule: Cf-GPQGYAGQ-A( N3)-Q

cleavage by MMP-8 (MMP-8 [6]): not cleaved
Molecule: Cf-GPQGYAGQ-A( N3)-Q [ID #4, control PCL, exchange I5Y]

Molecule: De-GPQG
not cleaved [3]: no difference after additional AP incubation for 30 minutes
